In US20250009734A1, “METHODS OF INHIBITING FOXO1 FOR TREATMENT OF LYMPHATIC DISORDERS” (UNIVERSITY OF SOUTH FLORIDA, priority 2023, published 2025):

Columns and labels:
Foxc2^+/CreERT2 mice = test: Mesenteric lymphatic valve counting after i.p. injection in pups; type: in vivo, mouse
Source text: FIGS. 3A-3F. AS1842856 treatment in vivo increases valve number in Foxc2^+/CreERT2 mice. (A) Schematic illustration of AS1842856 injection procedure in postnatal day (P) 7-21 pups. (B-E) Fluorescent images showing the morphology of mesenteric collecting lymphatic vessels at P21. Mesenteries are from Prox1-GFP with DMSO (vehicle control) injection (B); Prox1-GFP with AS1842856 injection (C); Foxc2^+/CreERT2; Prox1-GFP with DMSO injection (D); Foxc2^+/CreERT2; Prox1-GFP with AS1842856 injection (E). (F) Quantification of valves per millimeter at P21 from 4 groups of mice. 4 mice are used for the analysis. All values are mean±SEM. Two-way ANOVA was performed with Turkey's multiple comparisons. ns=not significant, *p≤0.05, ***p<0.001. Scale bar is 1000 μm.
Foxc2 is a chief regulator of lymphatic valve development modulating the expression of many valve genes (Sabine et al., 2015). While Foxc2 null animals are embryonic lethal, the Foxc2 heterozygous mice are a model of the human disease lymphedema-distichiasis with severe lymphatic valve loss (Kriederman et al., 2003, Petrova et al., 2004). To test whether AS1842856 treatment increases valve growth in vivo, the inventors intraperitoneally (i.p.) injected AS1842856 into Foxc2^+/CreERT2 pups. Instead of using wildtype pups as control, Prox1-GFP mice were used as control as well as for visualizing the lymphatic vasculature (Choi et al., 2011). The Foxc2^+/CreERT2 pups were also bred to carry the Prox1-GFP allele. Since the open reading frame in one allele of the Foxc2 gene is replaced with the cDNA for CreERT2, the Foxc2^+/CreERT2 mice is heterozygous for Foxc2 gene (Geng et al., 2016). […] To compare the number of valves from these 4 groups, the inventors counted total number of valves from 6 branches (from the lymph nodes to the gut wall) in the mesentery and measured the total length of these branches as previously published (Scallan et al., 2021). […]
TM administered postnatal pups were euthanized using an IACUC approved method and the colleting lymphatics were analyzed at the experimental timepoints. […]

FOXO3 = FOXO3 (Homo sapiens, UniProt O43524); conditions: Nagashima et al., 2010; cited from earlier work
[1] = tested on: human dermal lymphatic endothelial cells (hdLECs); test: Immunostaining of PROX1 and β-catenin localization in cultured hdLECs; type: cell-based; conditions: 0.5 μM AS for 48 hours, DMSO control: almost exclusively on the cell membrane
Protocol: FIGS. 2A-2F. AS1842856 elevates protein expression of valve genes and promotes b-catenin nuclear localization in cultured hdLECs. (A) hdLECs were cultured under static condition and treated for 48 hours with 0.5 μM DMSO (vehicle control) or 0.5 μM AS treatment. Thereafter, proteins were extracted, and western blot perform for the indicated proteins. ACTB is the loading control. (B) Quantification results of indicated proteins in western blot from three independent experiments. (C-F) Immunostaining of cultured hdLECs for PROX1 and CTNNB1 protein. All values are mean±SEM. n=3 experiment repeats; ns=not significant; *p≤0.05, **p≤0.01, ***p≤0.001. Vehicle control: 0.5 μM DMSO for 48 hours treatment. AS1842856: 0.5 μM AS1842856 for 48 hours treatment. Cells were stained for PROX1 (green) and CTNNB1 (purple). (E) and (F) are the merged images for PROX1 and CTNNB1. Scale bar is 50 μm.
In cells, phosphorylated β-catenin is degraded in a destruction complex in the cytoplasm, but unphosphorylated β-catenin upon activation is translocated to the nucleus from the cytoplasm (Harada et al., 1999). It has been reported that β-catenin in the nucleus of LECs promotes the expression of valve-forming genes FOXC2 and PROX1 by binding to the promoter areas of these two genes (Cha et al., 2016). […]

FOXO3, sequence (O43524 whole entry, species assumed): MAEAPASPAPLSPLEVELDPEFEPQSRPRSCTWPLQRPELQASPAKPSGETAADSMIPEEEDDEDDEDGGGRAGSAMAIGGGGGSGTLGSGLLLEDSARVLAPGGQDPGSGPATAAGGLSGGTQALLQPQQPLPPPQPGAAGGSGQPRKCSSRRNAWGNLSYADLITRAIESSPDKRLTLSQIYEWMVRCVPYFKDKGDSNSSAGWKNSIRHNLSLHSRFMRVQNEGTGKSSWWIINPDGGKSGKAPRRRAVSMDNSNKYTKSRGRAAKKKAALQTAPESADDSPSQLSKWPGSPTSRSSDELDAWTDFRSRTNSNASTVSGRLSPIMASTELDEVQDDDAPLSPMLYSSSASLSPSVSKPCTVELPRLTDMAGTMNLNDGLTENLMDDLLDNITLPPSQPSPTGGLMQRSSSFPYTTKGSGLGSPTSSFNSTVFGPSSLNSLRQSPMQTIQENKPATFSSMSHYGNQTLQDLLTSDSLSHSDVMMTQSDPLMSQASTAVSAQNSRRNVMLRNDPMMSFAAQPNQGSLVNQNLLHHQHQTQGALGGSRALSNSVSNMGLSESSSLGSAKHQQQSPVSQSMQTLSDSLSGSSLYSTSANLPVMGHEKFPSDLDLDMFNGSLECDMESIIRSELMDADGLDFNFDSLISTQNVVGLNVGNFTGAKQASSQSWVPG

In the case of `CCn1cc(C(=O)O)c(=O)c2c(N)c(F)c(NC3CCCCC3)cc21` [AS1842856], the valves/mm in mesentery (Foxc2^+/CreERT2 mice; Foxc2^+/CreERT2 pups with AS1842856 injection (8 mg/kg i.p. every other day P7-P21) vs Foxc2^+/CreERT2 pups with DMSO injection) is reported as “significantly higher”, the valves/mm in mesentery (Foxc2^+/CreERT2 mice; Foxc2^+/CreERT2 pups with AS1842856 injection (8 mg/kg i.p. every other day P7-P21) vs Prox1-GFP pups with DMSO injection) is reported as “still significantly lower” and the valves/mm in mesentery (Foxc2^+/CreERT2 mice; Prox1-GFP pups with AS1842856 injection (8 mg/kg i.p. every other day P7-P21) vs Prox1-GFP pups with DMSO injection) is reported as “no significant difference”. The “effect on inhibiting the activity of FOXO3” value (FOXO3) was “minimal effect” and the “localization of β-catenin (immunostaining)” value [1] was “a remarkable amount of β-catenin was in the nucleus”.
